Assay results published in PubChem BioAssay AID256 (DTP/NCI, 2004).
Several values for one entry are separate records, joined by “and”; a condition that tells them apart may be missing. Equal entries are not always repeated. Inconclusive results and toxic doses are left out.

System: CD2F1 mice, L1210 leukemia ip, survival T/C
Experiment: NCI In Vivo Anticancer Drug Screen. Data for tumor model L1210 Leukemia (intraperitoneal) in CD2F1 (CDF1) mice
Settings: higher = longer survival
How it was run: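 Antitumor effect is scored in animals hosting a serially transplanted tumor. Values compare compound-dosed animals against vehicle-only controls as a simple quotient.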

[1] = endpoint: mean survival time, dose: 100.0 mg/kg/injection, schedule: Q01DX001 (ip), vehicle: Klucel (hydroxypropylcellulose) (HPC)
[2] = endpoint: mean survival time, dose: 200.0 mg/kg/injection, schedule: Q01DX001 (ip), vehicle: Klucel (hydroxypropylcellulose) (HPC)
[3] = endpoint: mean survival time, dose: 400.0 mg/kg/injection, schedule: Q01DX001 (ip), vehicle: Klucel (hydroxypropylcellulose) (HPC)
[4] = endpoint: mean survival time, dose: 100.0 mg/kg/injection, schedule: Q01DX009 (ip), vehicle: saline
[5] = endpoint: mean survival time, dose: 100.0 mg/kg/injection, schedule: Q01DX009 (ip), vehicle: saline with Tween-80
[6] = endpoint: mean survival time, dose: 100.0 mg/kg/injection, schedule: Q04DX003 (ip), vehicle: saline with Tween-80
[7] = endpoint: mean survival time, dose: 200.0 mg/kg/injection, schedule: Q01DX009 (ip), vehicle: saline with Tween-80
[8] = endpoint: mean survival time, dose: 200.0 mg/kg/injection, schedule: Q04DX003 (ip), vehicle: saline with Tween-80
[9] = endpoint: mean survival time, dose: 400.0 mg/kg/injection, schedule: Q01DX009 (ip), vehicle: saline with Tween-80
[10] = endpoint: mean survival time, dose: 400.0 mg/kg/injection, schedule: Q04DX003 (ip), vehicle: saline with Tween-80
[11] = endpoint: mean survival time, dose: 25.0 mg/kg/injection, schedule: Q01DX009 (ip), vehicle: saline with Tween-80
[12] = endpoint: mean survival time, dose: 25.0 mg/kg/injection, schedule: Q04DX003 (ip), vehicle: saline with Tween-80
[13] = endpoint: mean survival time, dose: 50.0 mg/kg/injection, schedule: Q01DX009 (ip), vehicle: saline with Tween-80
[14] = endpoint: mean survival time, dose: 50.0 mg/kg/injection, schedule: Q01DX009 (ip), vehicle: saline
[15] = endpoint: mean survival time, dose: 100.0 mg/kg/injection, schedule: Q04DX003 (ip), vehicle: saline
[16] = endpoint: mean survival time, dose: 200.0 mg/kg/injection, schedule: Q04DX003 (ip), vehicle: saline

Compound: Cc1cc[n+](-c2c3c(nc4ccccc24)-c2ccccc2C(C)(C)C3)cc1
- T/C (endpoint: mean survival time, dose: 25.0 mg/kg/injection, schedule: Q04DX003 (ip), vehicle: saline sonified): 96 % of control
- T/C (endpoint: mean survival time, dose: 50.0 mg/kg/injection, schedule: Q04DX003 (ip), vehicle: saline sonified): 102 % of control
- T/C (endpoint: mean survival time, dose: 100.0 mg/kg/injection, schedule: Q01DX001 (ip), vehicle: saline with Tween-80): 96 % of control

Compound: Nc1ccc(Cl)c([N+](=O)[O-])c1
- T/C (endpoint: mean survival time, dose: 100.0 mg/kg/injection, schedule: Q04DX003 (ip), vehicle: Klucel (hydroxypropylcellulose) (HPC)): 94 % of control
- T/C (endpoint: mean survival time, dose: 200.0 mg/kg/injection, schedule: Q04DX003 (ip), vehicle: Klucel (hydroxypropylcellulose) (HPC)): 91 % of control
- T/C (endpoint: mean survival time, dose: 400.0 mg/kg/injection, schedule: Q04DX003 (ip), vehicle: Klucel (hydroxypropylcellulose) (HPC)): 89 % of control

Compound: Cc1ccc(C#N)c2c1CCC2
- T/C [1]: 103 % of control
- T/C [2]: 95 % of control
- T/C [3]: 103 % of control

Compound: COc1ccc(NC(=O)c2ccc(C(=O)Nc3ccc(OC)cc3)cc2)cc1
- T/C [4]: 96 % of control
- T/C (endpoint: mean survival time, dose: 200.0 mg/kg/injection, schedule: Q01DX009 (ip), vehicle: saline): 90 % of control
- T/C (endpoint: mean survival time, dose: 400.0 mg/kg/injection, schedule: Q01DX009 (ip), vehicle: saline): 98 % of control

Compound: CCN(Cc1cnc2nc(N)nc(N)c2n1)c1ccc(C(=O)NC(CCC(=O)O)C(=O)O)cc1 (centres undefined)
- T/C (endpoint: mean survival time, dose: 2.5 mg/kg/injection, schedule: Q01DX009 (ip), vehicle: sodium bicarbonate): 172 % of control
- T/C (endpoint: mean survival time, dose: 5.0 mg/kg/injection, schedule: Q01DX009 (ip), vehicle: sodium bicarbonate): 174 % of control
- T/C (endpoint: mean survival time, dose: 6.25 mg/kg/injection, schedule: Q01DX009 (ip), vehicle: sodium bicarbonate): 89 % of control
- T/C (endpoint: mean survival time, dose: 10.0 mg/kg/injection, schedule: Q01DX009 (ip), vehicle: sodium bicarbonate): 217 % of control
- T/C (endpoint: mean survival time, dose: 12.5 mg/kg/injection, schedule: Q01DX009 (ip), vehicle: sodium bicarbonate): 92 % of control

Compound: O=CO.[Cu+2]
- T/C (endpoint: mean survival time, dose: 5.0 mg/kg/injection, schedule: Q01DX001 (ip), vehicle: saline): 90 % of control
- T/C (endpoint: mean survival time, dose: 10.0 mg/kg/injection, schedule: Q01DX001 (ip), vehicle: saline): 98 % of control

Compound: CC(=O)N1C(=O)C2(Nc3cccnc3N2)c2ccccc21 (centres undefined)
- T/C (endpoint: mean survival time, dose: 100.0 mg/kg/injection, schedule: Q04DX003 (ip), vehicle: saline sonified): 97 % of control
- T/C (endpoint: mean survival time, dose: 200.0 mg/kg/injection, schedule: Q04DX003 (ip), vehicle: saline sonified): 88 % of control
- T/C (endpoint: mean survival time, dose: 400.0 mg/kg/injection, schedule: Q04DX003 (ip), vehicle: saline sonified): 103 % of control

Compound: NC1CCCCC1N.NC1CCCCC1N.[Cl-].[Ni] (centres undefined)
- T/C (endpoint: mean survival time, dose: 50.0 mg/kg/injection, schedule: Q04DX002 (ip), vehicle: saline with Tween-80): 110 % of control

Compound: C/C(=N\O)C1(C)CC=CCC1CO (centres undefined)
- T/C (endpoint: mean survival time, dose: 100.0 mg/kg/injection, schedule: Q01DX009 (ip), vehicle: saline sonified): 102 % of control
- T/C (endpoint: mean survival time, dose: 200.0 mg/kg/injection, schedule: Q01DX009 (ip), vehicle: saline sonified): 96 % of control
- T/C (endpoint: mean survival time, dose: 400.0 mg/kg/injection, schedule: Q01DX009 (ip), vehicle: saline sonified): 100 % of control

Compound: N#CC1C(=N)Cc2ccccc2-c2ccccc21 (centres undefined)
- T/C [5]: 96 % of control
- T/C [6]: 108 % of control
- T/C [7]: 93 % of control
- T/C [8]: 101 % of control
- T/C [9]: 106 % of control
- T/C [10]: 101 % of control

Compound: Nc1ncnc2c1ncn2CCCl
- T/C [11]: 102 % of control
- T/C [12]: 103 % of control
- T/C [13]: 101 % of control
- T/C (endpoint: mean survival time, dose: 50.0 mg/kg/injection, schedule: Q04DX003 (ip), vehicle: saline with Tween-80): 96 % of control
- T/C [6]: 97 % of control

Compound: NC(=O)C(Cl)(Cl)C(Cl)(Cl)C(Cl)(Cl)Cl
- T/C [5]: 100 % of control
- T/C [6]: 100 % of control
- T/C [7]: 93 % of control
- T/C [8]: 95 % of control
- T/C [9]: 90 % of control
- T/C [10]: 94 % of control

Compound: Cn1ncc(C#N)c1N
- T/C [1]: 117 % of control
- T/C [2]: 102 % of control
- T/C [3]: 102 % of control

Compound: O=C(O)C(O)C(O)C(=O)O.[NH-]C1CCCCC1[NH-].[Pt+2] (centres undefined)
- T/C (endpoint: mean survival time, dose: 1.56 mg/kg/injection, schedule: Q04DX003 (ip), vehicle: water): 115 % of control
- T/C (endpoint: mean survival time, dose: 12.5 mg/kg/injection, schedule: Q04DX003 (ip), vehicle: water): 367 % of control
- T/C (endpoint: mean survival time, dose: 25.0 mg/kg/injection, schedule: Q04DX003 (ip), vehicle: water): 266 % of control
- T/C (endpoint: mean survival time, dose: 50.0 mg/kg/injection, schedule: Q04DX003 (ip), vehicle: water): 201 % of control

Compound: O=C(CC(c1ccccc1)C(C(=O)O)C(=O)O)c1ccccc1 (centres undefined)
- T/C (endpoint: mean survival time, dose: 100.0 mg/kg/injection, schedule: Q04DX002 (ip), vehicle: other): 97 % of control
- T/C (endpoint: mean survival time, dose: 200.0 mg/kg/injection, schedule: Q04DX002 (ip), vehicle: other): 101 % of control
- T/C (endpoint: mean survival time, dose: 400.0 mg/kg/injection, schedule: Q04DX002 (ip), vehicle: other): 104 % of control

Compound: CCC1(CC)CCC(Br)C(Br)C1 (centres undefined)
- T/C [5]: 94 % of control
- T/C [6]: 95 % of control
- T/C [7]: 94 % of control
- T/C [8]: 98 % of control
- T/C [9]: 89 % of control
- T/C [10]: 93 % of control

Compound: O=NN(CCCl)C(=O)NCc1ccc[n+]([O-])c1
- T/C (endpoint: mean survival time, dose: 6.25 mg/kg/injection, schedule: Q01DX001 (ip), vehicle: water): 152 % of control and 167 % of control
- T/C (endpoint: mean survival time, dose: 12.5 mg/kg/injection, schedule: Q01DX001 (ip), vehicle: water): 274 % of control and 290 % of control
- T/C (endpoint: mean survival time, dose: 25.0 mg/kg/injection, schedule: Q01DX001 (ip), vehicle: water): 309 % of control and 324 % of control

Compound: O=C(Cc1ccccc1[N+](=O)[O-])NCC1(c2cccc3c2OCO3)OCCO1
- T/C (endpoint: mean survival time, dose: 75.0 mg/kg/injection, schedule: Q01DX001 (ip), vehicle: other): 96 % of control
- T/C (endpoint: mean survival time, dose: 150.0 mg/kg/injection, schedule: Q01DX001 (ip), vehicle: other): 91 % of control
- T/C (endpoint: mean survival time, dose: 300.0 mg/kg/injection, schedule: Q01DX001 (ip), vehicle: other): 96 % of control

Compound: C=CC(=O)N1CCN(C(=O)C=C)c2cc(C)c(C)cc21
- T/C (endpoint: mean survival time, dose: 25.0 mg/kg/injection, schedule: Q01DX009 (ip), vehicle: saline): 101 % of control
- T/C [14]: 101 % of control
- T/C [4]: 100 % of control

Compound: O=C(O)CCCc1ccc(Cl)cc1
- T/C [15]: 106 % of control
- T/C [16]: 106 % of control
- T/C (endpoint: mean survival time, dose: 400.0 mg/kg/injection, schedule: Q04DX003 (ip), vehicle: saline): 98 % of control

Compound: CC1Oc2ccccc2OC1C(=O)NN (centres undefined)
- T/C [5]: 92 % of control
- T/C [7]: 94 % of control
- T/C [9]: 94 % of control

Compound: COc1cc2c(cc1OC)C1CCN3C(=O)CCC3[N+]1(C)CC2 (centres undefined)
- T/C [14]: 93 % of control
- T/C [4]: 98 % of control
- T/C [15]: 98 % of control
- T/C [16]: 96 % of control

Compound: c1ccc(CN2CCNCC2)cc1
- T/C (endpoint: mean survival time, dose: 6.25 mg/kg/injection, schedule: Q04DX003 (ip), vehicle: saline with Tween-80): 96 % of control
- T/C (endpoint: mean survival time, dose: 12.5 mg/kg/injection, schedule: Q04DX003 (ip), vehicle: saline with Tween-80): 96 % of control
- T/C [12]: 101 % of control

Compound: CNP1(=O)OC(c2ccccc2)=CCN1CCCl (centres undefined)
- T/C (endpoint: median survival time, dose: 31.25 mg/kg/injection, schedule: Q01DX001 (ip), vehicle: distilled water + Tween-80): 102 % of control
- T/C (endpoint: median survival time, dose: 62.5 mg/kg/injection, schedule: Q01DX001 (ip), vehicle: distilled water + Tween-80): 106 % of control
- T/C (endpoint: median survival time, dose: 125.0 mg/kg/injection, schedule: Q01DX001 (ip), vehicle: distilled water + Tween-80): 96 % of control
- T/C (endpoint: median survival time, dose: 250.0 mg/kg/injection, schedule: Q01DX001 (ip), vehicle: distilled water + Tween-80): 96 % of control

Compound: O=C(Nc1ccc(Cl)c(Cl)c1)C(Cl)Cl
- T/C (endpoint: mean survival time, dose: 12.5 mg/kg/injection, schedule: Q01DX009 (ip), vehicle: saline with Tween-80): 95 % of control
- T/C [11]: 101 % of control
- T/C [13]: 107 % of control

Compound: CCCC(=O)c1c(C)cc(C)cc1C
- T/C (endpoint: mean survival time, dose: 100.0 mg/kg/injection, schedule: Q04DX003 (ip), vehicle: other): 98 % of control
- T/C (endpoint: mean survival time, dose: 200.0 mg/kg/injection, schedule: Q04DX003 (ip), vehicle: other): 104 % of control
- T/C (endpoint: mean survival time, dose: 400.0 mg/kg/injection, schedule: Q04DX003 (ip), vehicle: other): 98 % of control

Compound: CN1C2CCC1CNC2
- T/C [6]: 103 % of control
- T/C [8]: 101 % of control
- T/C [10]: 103 % of control
